# Test results taken from patent publication US4272524A, “N-Acyl-muramyl peptide derivatives having anti-infectious infections properties” (priority 1976, dated 1981).
# Tested on: Klebsiella pneumoniae
# Test: Response of mice to an intramuscular infection by 10^4 Klebsiella pneumoniae (Table 2)
# Format: in vivo
# [1] = i.v. hour + 1 after inoculation, 100 μg per animal
# [2] = per os day-1, 2,000 μg per animal
Molecule,"Survival (%) D + 3 (i.v. day-1, 100 μg per animal) [%]","Survival (%) D + 5 (i.v. day-1, 100 μg per animal) [%]","Survival (%) D + 8 (i.v. day-1, 100 μg per animal) [%]",Survival (%) D + 3 [1] [%],Survival (%) D + 5 [1] [%],Survival (%) D + 8 [1] [%],Survival (%) D + 3 [2] [%],Survival (%) D + 5 [2] [%],Survival (%) D + 8 [2] [%],"Survival (%) D + 3 (s.c. day-1, 100 μg per animal) [%]","Survival (%) D + 5 (s.c. day-1, 100 μg per animal) [%]","Survival (%) D + 8 (s.c. day-1, 100 μg per animal) [%]"
CC(=O)N[C@H]1C(O)O[C@H](CO)[C@@H](O)[C@@H]1O[C@H](C)C(=O)N[C@@H](C)C(=O)N[C@H](CCC(N)=O)C(=O)O (stereo partly drawn) [Ac--Mur--L-Ala--D-Glu--γ(NH2)],92,79,67,,,,,,,,,
Ac--Mur--L-Ala--D-Glu-- γ(L-Ala)--NH2 [Ac--Mur--L-Ala--D-Glu--(L-Ala)--NH2],100,94,63,,,,,,,,,
Ac--Mur--L-Ala--D-Glu-- γ(L-Lys)--NH2 [Ac--Mur--L-Ala--D-Glu--(L-Lys)--NH2],100,93,73,91,78,66,81,81,56,100,81,75
Ac--Mur--L-Ala--D-Glu-- γ(L-Lys--L-Ala)--NH2 [Ac--Mur--L-Ala--D-Glu--(L-Lys--L-Ala)],96,79,71,,,,,,,,,
